The results in this text go back to patent US20210388012A1, “METHODS AND COMPOSITIONS FOR PRODRUG FORMS OF SPECTINOMYCIN AND SPECTINAMIDE ANALOGS” (priority 2018, published 2021).

A short description of data set [1]: in vitro. The format is in vitro ADME. The following applies: human plasma, 37° C., read-out: Plasma Stability (Human) t½ (converted). As to the method:
(§1) LC-MS Method 2. Chromatographic separation was performed on an Acquity UPLC BEH C18 1.7 μm, 2.1×50 mm column (Waters Corporation, Milford, Mass.) or a Luna Omega 1.6 μm C18, 2.1×50 mm column (Phenomenex, Torrance, Calif.) using an Acquity ultra performance liquid chromatography system. Data were acquired using Masslynx v. 4.1 and analyzed using the Openlynx software suite. This was coupled to an Acquity photodiode array detector, which acquired UV data from 210-400 nm. The flow was then split, with half directed to an evaporative light scattering detector (ELSD) and half to an SQ mass spectrometer. The total flow rate was 1 mL/min. The sample injection volume was 10 μL. The UPLC column was maintained at 60° C. and the gradient program with either basic mobile phase (A1, 10 mM ammonium bicarbonate in MilliQ H2O; B1, 0.1% formic acid in acetonitrile) or formic mobile phase (A1, 0.1% formic acid in MilliQ H2O; B1, 0.1% formic acid in acetonitrile) based on the compounds' physical and chemical properties. The mass spectrometer was operated in positive-ion mode with electrospray ionization. The conditions were as follows; capillary voltage 3.4 kV, cone voltage 30 V, source temperature 130° C., desolvation temperature 400° C., desolvation gas 800 L/hr, cone gas 100 L/hr. A full scan range from m/z=110-1000 in 0.2 s was used to acquire MS data. The ELSD-drift tube temperature was set at 52° C.
Plasma stability was determined after incubation in human plasma for various incubation time, i.e., incubation times of 0, 3, 24, and 48 hour were used. DMSO stock solutions of test compounds were prepared at 10 mM concentration. 1.8 μL of each test compound was each added directly to 1.8 mL of human plasma to get the final concentration of 10 μM. This compound/matrix was mixed and 70 μL was transferred to 4 time points plates (each in triplicate wells). […] The plasma stability was evaluated via the half-life from least-squares fit of the multiple time points based on first-order kinetics.

Data set [2] is described as follows: Metabolic stability, human liver microsomal degradation. In kind it is in vitro ADME. As to conditions: human liver microsomes; read-out: Metabolic Stability (Human) t½ (converted). As to the method:
as §1
The stability of compounds to human liver microsomal degradation, i.e., metabolic stability, was determined as described previously (see North, E. J., et al, Bioorg. Med. Chem. (2013) 21(9):2587-2599) and the rate of degradation was monitored by LC-MS analysis using multiple sampled time points as described herein above in LC-MS Method 2. Metabolic stability was evaluated via the half-life from least squares fit of the concentration remaining at the time points based on first-order kinetics.
Background: Liver microsomes are a subcellular fraction often used to study metabolism.

The nature of data set [3]: Single ascending maximum tolerated dose study in rat. The format is in vivo. The following applies: female Sprague-Dawley rats. As for the experimental part: Several compounds were assessed in single ascending maximum tolerated studies. The compounds assessed were 1810; 3408, a prodrug form of compound 1810; 1599, a chloro homologue of compound 1810; and gentamicin, an antimicrobial associated with ototoxicity. The study was carried out in female Sprague-Dawley rats (n=3 per group). All the drug solutions were prepared in water and PLASMA-LYTE A (50:50; […] was obtained from Baxter Healthcare Corporation, Deerfield, Ill.). Each group of rats were fasted overnight with access to water aJ libitum and a fixed volume (2 mL) of drug-containing solution was administered via the jugular vein catheter. Food was withheld for 3 h post dosing. Different phases of the study were classified on five different speeds of i.v, administration; Phase 1: 5 sec, Phase 2: 30 sec, Phase 3: 5 min, Phase 4: 15 min, Phase 5: 30 min. In the first and second phases, a set of predefined dose levels: 10, 25, 50, 75, 100, 150, 300, 350, 400, 450 and 500 mg/kg. Escalation to the next higher dose was conditional upon absence of signs of acute toxicity following the immediate lower dose over a 24 h period. All animals were monitored by visual inspection focused on focus on changes in skin, fur, eyes, and also respiratory, circulatory, autonomic and central nervous systems, along with somatomotor activity and behavior pattern, including tremors, convulsions, salivation, diarrhea, lethargy, sleep and coma. A dose level was deemed an MTD if […] of acute toxicity were observed and that dose was chosen for the second phase of the study where the process was repeated to determine a toxic dose. For third, fourth and fifth phases, dosing solution was infused by a Instech tethering system (Instech Laboratories Inc., Plymouth Meeting, Pa.) where the animal is freely moving within its cage, the catheter connection is held in place by a vascular access harness and a swivel system, and the drug administration is performed via a Harvard Apparatus programmable syringe pump. After dosing, the tether was removed immediately after completion of the infusion and the catheter was flushed with (100 μL) PlasmaLyte A. Surviving animals from the previous dose with no signs of toxicity were re-used in either phases of these studies upon allowing a one day drug washout period.

Turning to `CN[C@@H]1[C@H](O)[C@H](NC)[C@H]2O[C@]3(O)[C@H](O[C@@H]2[C@H]1O)O[C@H](C)C[C@H]3NC(=O)Cc1ccc(-c2ccc(OP(=O)(O)O)cc2)cn1` [Compound 4074, 4-(6-(2-oxo-2-(((2R, 4R, 4aS, 5aR, 6S, 7S, 8R, 9S, 9aR, 10aS)-4a,7,9-trihydroxy-2-methyl-6,8-bis(methyl-amino)decahydro-2H-benzo[b]pyrano[2,3-e][1,4]dioxin-4-yl)amino)ethyl)pyridin-3-yl)phenyl dihydrogen phosphate], in data set [1], the half-life at 10 µM was less than 0.0833 h. Moreover, the half-life in data set [2] was 2.98 h.

On to `CN[C@@H]1[C@H](O)[C@H](NC)[C@H]2O[C@]3(O)[C@H](O[C@@H]2[C@H]1O)O[C@H](C)C[C@@]3(O)CNCc1ccc(F)c(OP(=O)(O)O)c1` [Compound 3959, 2-fluoro-5-(((((2R,4R,4aS,5aR,6S,7S,8R,9S,9aR,10aS)-4,4a,7,9-tetrahydroxy-2-methyl-6,8-bis(methylamino)decahydro-2H-benzo[b]pyrano[2,3-e][1,4]dioxin-4-yl)methyl)amino)methyl)phenyl dihydrogen phosphate], for which, in data set [2], the half-life is 1.84 h.

For orientation: MTD means the largest dose that counted as tolerated. Turning to gentamicin [reference compound], the MTD amounted to 100 mg/kg in data set [3] (5 second IV bolus); 100 mg/kg in data set [3] (30 second IV bolus); 200 mg/kg in data set [3] (5 minute IV infusion); 300 mg/kg in data set [3] (15 minute IV infusion); 400 mg/kg in data set [3] (30 minute IV infusion).

`CCOP(=O)(OCC)Oc1ccc(CC(=O)N[C@@H]2C[C@@H](C)O[C@H]3O[C@@H]4[C@@H](O)[C@H](NC)[C@H](O)[C@H](NC)[C@H]4O[C@]32O)nc1` [Compound 3906, Diethyl (6-(2-oxo-2-(((2R,4R,4aS, 5aR,6S,7S,8R,9S,9aR,10aS)-4a,7,9-trihydroxy-2-methyl-6,8-bis(methylamino)decahydro-2H-benzo[b]pyrano[2,3-e][1,4]dioxin-4-yl)amino)ethyl)pyridin-3-yl) phosphate]: the half-life at 10 µM in data set [1] was 19.5 h. In addition, the half-life in data set [2] was 3.61 h.
